Counter-ions that a name gives are not always drawn.
How the values were obtained:
Format in all cases: physicochemical
[1] = Water-solubility test; details: for Water Solubility @ 25° C. (mg/mL as acid): 25° C. (room temperature)
Protocol: The solubility of the of Examples 1-3 in water at room temperature was determined together with the solubility of the corresponding free acids.

[2] = Dynamic Vapour Sorption (DVS) moisture sorption/desorption; details: for Mass increase at 80% relative humidity (DVS): 80% RH; for Mass increase at 90% relative humidity (DVS): 90% RH; for Hygroscopicity / Hysteresis in DVS sorption/desorption: result in words
Protocol: Dynamic Vapour Sorption (DVS) profiles were obtained using an Igasorp Hiden Isochema instrument (serial number IGA-SA-066). After an initial stabilization period, at least two isotherms (at 25° C.) were obtained for each sample: a moisture sorption from 0 to 95% relative humidity and moisture desorption from 95% relative humidity to dryness. Both isotherms were performed in 10% humidity steps, with a minimum time of 10 minutes and a maximum time of 30 minutes for each step.

[3] = Differential scanning calorimetry (DSC) thermogram, stability; details: heated 30 to 350° C. at 10° C./min; result in words
Protocol: The differential scanning calorimetry (DSC) thermograms analyses were obtained using a DSC-821 Mettler-Toledo instrument, serial number 5117423874. Samples were weighed into an aluminium pan, an aluminium lid placed on top of the sample and compressed with a brass rod. Samples were equilibrated at 30° C. and heated at 10° C./min to 350° C. The instrument was calibrated using indium and zinc standards.

Structure (SMILES)	Solubility in water compared with the corresponding free acids ([1]; result in words)	Water Solubility @ 25° C. (mg/mL as acid) [1]	Mass increase at 80% relative humidity (DVS) ([2]; 25° C.)	Mass increase at 90% relative humidity (DVS) ([2]; 25° C.)	Hygroscopicity [2]	Hysteresis in DVS sorption/desorption [2]	Stability (polymorph conversion / decomposition) from DSC thermogram [3]	Mass increase at 95% relative humidity (DVS) ([2]; 95% RH, 25° C.)
O=C(O)c1cc(C2CC2)ccc1Nc1cnc(-c2c(F)cccc2F)nc1 [Example 1, 5-cyclopropyl-2-{[2-(2,6-difluorophenyl)pyrimidin-5-yl]amino}benzoic acid, tromethamine salt]	Particularly good results	1.780 mg/mL as acid	1.2%	6.1%	not hygroscopic	no hysteresis	high stability	–
O=C(O)c1cc(C2CC2)ccc1Nc1cnc(-c2ccccc2C(F)(F)F)nc1 [Example 2, 5-cyclopropyl-2-{[2-(2-(trifluoromethyl)phenyl)pyrimidin-5-yl]amino}benzoic acid, tromethamine salt]	–	0.139 mg/mL as acid	3.4%	–	slightly hygroscopic	no hysteresis	high stability	7.0%
Cc1ccc(Nc2ccc(-c3cccc(F)c3F)nc2)c(C(=O)O)c1 [Example 3, 5-methyl-2-{[6-(2,3-difluorophenyl)pyridin-3-yl]amino}benzoic acid, tromethamine salt]	–	0.540 mg/mL as acid	1.8%	5.1%	not hygroscopic	no hysteresis	high stability	–
O=C(O)c1cc(C2CC2)ccc1Nc1cnc(-c2c(F)cccc2F)nc1 [Example C1, 5-cyclopropyl-2-{[2-(2,6-difluorophenyl)pyrimidin-5-yl]amino}benzoic acid, reference compound]	–	0.030 mg/mL as acid	–	–	–	–	–	–

Results, then the molecule that gave them:

Solubility in water compared with the corresponding free acids ([1]; result in words)	Water Solubility @ 25° C. (mg/mL as acid) [1]	Mass increase at 80% relative humidity (DVS) ([2]; 25° C.)	Mass increase at 90% relative humidity (DVS) ([2]; 25° C.)	Hygroscopicity [2]	Hysteresis in DVS sorption/desorption [2]	Stability (polymorph conversion / decomposition) from DSC thermogram [3]	Mass increase at 95% relative humidity (DVS) ([2]; 95% RH, 25° C.)	Structure (SMILES)
–	0.003 mg/mL as acid	–	–	–	–	–	–	O=C(O)c1cc(C2CC2)ccc1Nc1cnc(-c2ccccc2C(F)(F)F)nc1 [Example C2, 5-cyclopropyl-2-{[2-(2-(trifluoromethyl)phenyl)pyrimidin-5-yl]amino}benzoic acid, reference compound]
–	0.007 mg/mL as acid	–	–	–	–	–	–	Cc1ccc(Nc2ccc(-c3cccc(F)c3F)nc2)c(C(=O)O)c1 [Example C3, 5-methyl-2-{[6-(2,3-difluorophenyl)pyridin-3-yl]amino}benzoic acid, reference compound]
